Two molecules from PMC9223658, “New Borane-Protected Derivatives of α-Aminophosphonous Acid as Anti-Osteosarcoma Agents: ADME Analysis and Molecular Modeling, In Vitro Studies on Anti-Cancer Activities, and NEP Inhibition as a Possible Mechanism of Anti-Proliferative Activity” (International Journal of Molecular Sciences, 2022) can be followed below.

A word on the IC50: it is the concentration that inhibits the measured activity by half. In general, CC50 refers to the concentration that lowers cell viability or growth by half. One may read the inhibition as how much of the control response was suppressed. The low end stands for a weak effect, the high end for a strong effect.

The subject of one data set is osteosarcoma HOS cells. Kind of data set: MTT proliferation assay, 96 h. The format is cell-based, human. Conditions: HOS; for IC50: proliferation, 10% FBS, read-out: IC50 (µM ± SD) HOS. On the procedure: (§1) One of the features specific totumor cells is the unlimited potential for proliferation. […] To this end, the assay conditions were established suchthat they encourage the proliferation of OS cells, i.e., the cell cultures at low density were incubated with compounds diluted in the growth medium (10% FBS) for an extended time of 96 h. Additionally, cisplatin, i.e., a common cytostatic used in osteosarcoma treatment, was included as a positive control in this study. Moreover, since the new generation of anti-cancer compounds is highly desired to be inert (non-cytotoxic) towards normal cells, the influence of compounds 1–7 on the viability of human normal cells (osteoblasts hFOB 1.19 and colon fibroblasts CCD-18Co) was also determined.To this end, the assay conditions were established such that they restrict the proliferation of OS cells and to establish whether the compounds have cytotoxic potential, i.e., the cell cultures were incubated with compounds diluted in the medium with a reduced concentration of FBS (2%) for a shortened time of 24 h. […] However, this activity varied depending on both the types of the compounds and the osteosarcoma cell lines (Table 4).
(§2) The anti-proliferative activity of compounds 1–7 against the HOS and Saos-2 osteosarcoma cells and the viability of the human normal hFOB 1.19 and CCD-18Co cells were screened by means of the MTT method. This method is commonly used to assess cell viability and proliferation or to determine the cytotoxicity of any compounds. It is a reliable method for this purpose because it is based on measurement of the level reduction in MTT dye to formazan byNAD(P)H-dependent oxidoreductase enzymes of metabolically active cells.
(§3) To assess the anti-proliferative activity of compounds 1–7 against the HOS and Saos-2 osteosarcoma cells, 3.0 × 10^4 cells/mLseeded (low density culture) into 96-well plates (Nunc, Roskilde, Denmark) were incubated with each compound at concentrations of 3.125, 6.25, 12.5, 25, 50, 100 and 200 µM prepared in medium with 10% FBS (growth medium) for 96 h. Additionally, cisplatin (Sigma Aldrich), i.e., a common cytostatic used in osteosarcoma treatment, was included as a positive control in this study. It was tested in the same conditions as compounds 1–7. The negative control was constituted by the untreated cells (0 µM). Next, the MTT assay was carried out as described previously.
(§4) The results of these assays were calculated as a percent of the untreated cells (100%; control). Then, the IC50 (concentration resulting in 50% inhibition of proliferation) and CC50 (concentration resulting in a 50% decrease in viability) values were calculated from a non-linear regression (log(inhibitor) vs. normalized response-variable slope) using GraphPad Prism 5.0 (GraphPAD Software Inc., San Diego, CA, USA). The IC50 and CC50 results were presented as themean ± SD of at least three experiments. In the case of the BrdU assay, the results were presented as a percent of untreated cells (100%; control).
In general terms: Tetrazolium assays rely on reduction of a dye to a coloured formazan, in cell work by metabolically active cells.

The subject of data set [1] is osteosarcoma Saos-2 cells. Kind of data set: MTT proliferation assay, 96 h. The following applies: for IC50: SAOS-2, proliferation, 10% FBS, read-out: IC50 (µM ± SD) Saos-2. The data set is classed as cell-based, human. On the procedure:
as §1, §2, §3, §4

Data set [2] can be described thus: MTT viability assay, 24 h. The format is cell-based. The following applies: human, normal osteoblasts hFOB 1.19 cells, 2% FBS, read-out: CC50 (µM ± SD) hFOB 1.19. The method, then:
as §1, §2
To assess the viability of human normal cells, confluent hFOB 1.19 (3 × 10^5 cells/mL) and CCD-18Co (1 × 10^5 cells/mL) cells seeded in 96-well plates (Nunc) were incubated with compounds 1–7 at concentrations of 3.125, 6.25, 12.5, 25, 50, 100 and 200 µM prepared in medium with 2% FBS (maintaining medium) for 24 h. The control was constituted by the untreated cells (0 µM). Next, the MTT assay was carried out as described previously.
as §4

The test system of another data set is HOS cells. Kind of data set: Cell cycle assay (PI/RNase, flow cytometry). The format is cell-based, human. The following applies: 72 h. The method, then:
(§5) To examine the influence of compounds 4 and 6 on the distribution of cells in the cell cycle phases, the HOS and Saos-2 osteosarcoma cells (3.0 × 10^4 cells/mL) were seeded into 6-well plates (Nunc) and incubated with compounds 4 and 6 at concentrations of 12.5, 25, 50 µM and 20, 40, 80 µM as well as 15, 30; 60 µM and 21.25, 42.5, 85 µM, respectively. The compound solutions were prepared in a medium with 10% FBS. The control was constituted by the untreated cells (0 µM). The cells were treated for 72 h. Next, floating and adherent cells were harvested and subjected to further steps of the PI staining procedure (PI/RNase Staining Buffer, BD Pharmingen^TM, BD Biosciences, San Jose, CA, USA) previously described. The PI fluorescence intensity was measured using FACS Calibur (BD Pharmingen^TM), and the obtained data were analyzed using Cell Quest Pro Version 6.0. for the Macintosh operating system (BD Pharmingen^TM). The presented results were calculated as a percent of cells in the respective cell cycle phases (sub-G1, G0/G1, S and G2) among all the analyzed cells.
A general note: Flow cytometry measures light scatter and fluorescence of single cells or particles in a stream.

A further data set has as its system Saos-2 cells. Kind of data set: Cell cycle assay (PI/RNase, flow cytometry). The data set is classed as cell-based, human. Conditions: 72 h. The method, then:
as §5

Another data set addresses T1, NEP (neprilysin) (Homo sapiens, UniProt P08473).
T1 construct: purchased BioVision, Waltham, MA, USA
Kind of data set: Neutral endopeptidase activity assay (fluorometric). The format is biochemical. The following applies: vs control. On the procedure:
The NEP activity in the presence of compounds 4 and 6 was determined using the Neprilysin Activity Assay Kit (BioVision, Waltham, MA, USA) according to the manufacturer’s instructions. The measurement is based on the ability of active neprilysin to cleave a synthetic substrate (Abz-based peptide) to release a fluorophore, which can be easily quantified using a fluorescence microplate reader. Briefly, pure neprilysin (5µLof stock solution) was incubated with solutions of the tested compounds (at least 4 concentrations in the range of 0.01–50 µM) for 10 min at 37 °C. The reaction was started by adding the substrate solution, and the final sample volume was 100µL. Fluorescence was measured (Ex/Em = 330/430nm) in the kinetic mode at 37 °C for 1–2 h. The same procedure was used to measure the control and background sample. Thiorphan was used as a reference NEP inhibitor. NEP activity was determined with the prepared Abz standard curve and expressed in µU/mL. The experiments were performed at least in triplicates, and the graphs represent mean ±SD values.

T1 sequence (P08473 whole entry): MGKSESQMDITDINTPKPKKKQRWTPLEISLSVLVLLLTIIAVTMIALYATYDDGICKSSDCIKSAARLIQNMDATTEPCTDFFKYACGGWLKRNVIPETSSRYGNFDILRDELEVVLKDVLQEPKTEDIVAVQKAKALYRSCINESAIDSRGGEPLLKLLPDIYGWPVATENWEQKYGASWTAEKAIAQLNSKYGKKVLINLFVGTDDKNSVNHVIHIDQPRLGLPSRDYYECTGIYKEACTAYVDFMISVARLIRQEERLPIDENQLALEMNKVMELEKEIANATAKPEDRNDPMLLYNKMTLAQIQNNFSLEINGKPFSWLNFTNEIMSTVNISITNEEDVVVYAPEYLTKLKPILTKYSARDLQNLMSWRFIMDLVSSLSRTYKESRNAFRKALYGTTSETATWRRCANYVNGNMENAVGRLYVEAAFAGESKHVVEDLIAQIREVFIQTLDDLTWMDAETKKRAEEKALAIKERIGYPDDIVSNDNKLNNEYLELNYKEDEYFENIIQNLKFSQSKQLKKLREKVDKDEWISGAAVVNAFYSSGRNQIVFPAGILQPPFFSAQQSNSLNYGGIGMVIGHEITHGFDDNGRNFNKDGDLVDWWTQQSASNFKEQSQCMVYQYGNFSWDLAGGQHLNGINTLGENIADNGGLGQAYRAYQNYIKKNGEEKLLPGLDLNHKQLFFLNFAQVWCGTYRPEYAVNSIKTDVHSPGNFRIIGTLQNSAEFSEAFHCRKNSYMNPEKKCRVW

`[BH3-][P+](OC(C)C)(OC(C)C)C(Nc1ccc(C)cc1)c1ccccc1` (stereo not drawn) [Compound 6, [1-(N-p-tolylamino)]-1-phenylmethylphosphonous acid-borane diisopropyl ester]: the IC50 in the data set on osteosarcoma HOS cells (Homo sapiens) is 41.5 ± 6.9 µM. The IC50 in data set [1] (Homo sapiens, MTT) stood at 86.8 ± 15.7 µM. The CC50 at 24 h in data set [2] stood at 266 ± 110 µM. Moreover, in the data set on HOS cells (40 µM and 80 µM), the “number of cells at G0/G1 phase” value is on record as “significant decrease”; the “number of cells at sub-G1 and G2 phases” value is reported as “statistically significant increase”. Further, the “number of cells at sub-G1 phase” value with Saos-2 cells (Saos-2, 42.5 µM and 85 µM) is “significant increase”. This molecule also showed an inhibition at 50 µM against NEP (neprilysin) of roughly 30%.

On to `[BH3-][P+](OC(C)C)(OC(C)C)C(Nc1ccc(Br)cc1)c1ccc([N+](=O)[O-])cc1` (stereo not drawn) [Compound 4, [1-(N-p-bromophenylamino)]-1-(p-nitrophenyl)methylphosphonousacid-borane diisopropyl ester], for which the “lowest concentration that inhibited proliferation statistically significantly” value in the data set on osteosarcoma HOS cells is reported as 6.25 µM; in data set [1] (Saos-2, MTT), 25 µM. The same molecule displayed an inhibition at 6.25 µM in the data set on osteosarcoma HOS cells (Homo sapiens, 6.25 µM) of roughly 18%. For the same molecule, the IC50 in the data set on osteosarcoma HOS cells (Homo sapiens) was determined as 27.2 ± 7.8 µM; in data set [1] (Homo sapiens, MTT), 59.9 ± 15 µM. The inhibition at 25 µM in data set [1] (Homo sapiens, Saos-2, 25 µM, MTT, compared to the control) is roughly 27%. In data set [2], the CC50 at 24 h came out at 189 ± 36.4 µM. Further, the “number of cells at G0/G1 phase” value in the data set with HOS cells (25 µM and 50 µM) is on record as “significant decrease”. In addition, in the data set on HOS cells (25 µM and 50 µM), the “number of cells at sub-G1 and G2 phases” value is recorded as “statistically significant increase”. The “number of cells at sub-G1 phase” value in the data set with Saos-2 cells (Saos-2, 30 µM and 60 µM) is recorded as “significant increase”. The inhibition at 0.1 µM at NEP (neprilysin) (0.1 µM) is roughly 40%. This molecule registered an inhibition at 0.5 µM against NEP (neprilysin) (0.5 µM) of roughly 50%. This molecule returned an inhibition at 10 µM on NEP (neprilysin) (10 µM) of roughly 50%. Further, the inhibition at 50 µM against NEP (neprilysin) is roughly 50%.
